The values below come from US11572399B2, “Long-acting GIP peptide analogues” (University of Copenhagen, priority 2017, dated 2023).

The target in data set [1] is T1, human GIP receptor (Homo sapiens, UniProt P48546).
T1 construct: host or cells: COS-7, transient transfection (calcium phosphate), cDNA in pCMV-Script
T1 sequence (P48546 22-466): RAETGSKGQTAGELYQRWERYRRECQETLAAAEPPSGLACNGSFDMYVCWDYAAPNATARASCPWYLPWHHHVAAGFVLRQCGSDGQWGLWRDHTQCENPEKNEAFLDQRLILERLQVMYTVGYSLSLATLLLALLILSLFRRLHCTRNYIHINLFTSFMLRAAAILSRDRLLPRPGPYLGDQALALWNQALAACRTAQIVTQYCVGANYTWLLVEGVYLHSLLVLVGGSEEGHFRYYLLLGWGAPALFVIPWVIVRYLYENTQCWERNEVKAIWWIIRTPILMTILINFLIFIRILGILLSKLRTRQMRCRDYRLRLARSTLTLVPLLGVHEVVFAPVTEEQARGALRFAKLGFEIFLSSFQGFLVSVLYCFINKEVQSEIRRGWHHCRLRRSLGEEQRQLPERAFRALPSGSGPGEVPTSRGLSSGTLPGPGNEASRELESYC
The experiment in a line: cAMP accumulation assay, antagonism of a GIP-mediated cAMP response (50-80% of max). Format: cell-based. To be noted: for Fold change of IC50 versus GIP(5-30)NH2: fold change of IC50 from GIP(5-30)NH2. As for the experimental part: The day after, the cells were washed twice with Hepes buffered saline (HBS) buffer and incubated with HBS and 1 mM 3-isobutyl-1-methylxanthine (IBMX) for 30 min at 37° C. […] The HitHunter™ cAMP XS assay (DiscoveRx) was carried out according to the manufacturer's instructions.
(In general: Cyclic AMP is a second messenger, typically raised through Gs and lowered through Gi signalling.)

The target of data set [2] is T1, human GIP receptor. Put plainly: cAMP accumulation assay, agonism (ligand alone). Format: cell-based. To be noted: COS-7 cells, Table 1; for Emax: COS-7, intrinsic cAMP activity; for EC50: read-out: cAMP agonism nM (EC50).
The target in data set [3] is T1, human GIP receptor. Put plainly: 125I-human GIP competition binding assay, in the presence and absence of 2% HSA.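 On all read-outs here: nonspecific binding taken as radioligand bound to untransfected cells, IC50 obtained from nonlinear regression fits.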 As to conditions: for Fold change HSA (2%)/Casein (0.1%): IC50 (plus HSA)/IC50 (minus HSA); for Binding (+/−HSA) Fold: fold change +HSA/−HSA.
Where [4] appears, read: transiently transfected COS-7 cells, Table 1 and text, read-out: cAMP antagonism nM (IC50, antagonistic potency).
[5] abbreviates: binding in 0.1% casein (absence of HSA), log value, read-out: logIC50 0.1% casein (converted).
[6] abbreviates: heterologous competition binding, transiently transfected COS-7 cells expressing the human GIP receptor, read-out: Binding.

Peptide text beside a SMILES is read from it. * marks the point of attachment. Palmitoyl = CCCCCCCCCCCCCCCC(=O)*

What is called Emax is the greatest response seen or fitted, relative to the assay's reference. Usually EC50 stands for the midpoint of the concentration-response curve. As to `CCCCCCCCCCCCCCCC(=O)NCCCC[C@H](NC(=O)[C@@H](NC(=O)[C@H](CCCNC(=N)N)NC(=O)[C@H](CC(=O)O)NC(=O)[C@H](CCSC)NC(=O)[C@H](C)NC(=O)[C@@H](NC(=O)[C@H](CO)NC(=O)[C@H](Cc1ccc(O)cc1)NC(=O)[C@H](CC(=O)O)NC(=O)[C@H](CO)NC(=O)[C@@H](NC(=O)[C@H](Cc1ccccc1)NC(=O)[C@@H](N)[C@@H](C)O)[C@@H](C)CC)[C@@H](C)CC)[C@@H](C)CC)C(=O)N[C@@H](CCC(N)=O)C(=O)N[C@@H](CCC(N)=O)C(=O)N[C@@H](CC(=O)O)C(=O)N[C@@H](Cc1ccccc1)C(=O)N[C@H](C(=O)N[C@@H](CC(N)=O)C(=O)N[C@@H](Cc1c[nH]c2ccccc12)C(=O)N[C@@H](CC(C)C)C(=O)N[C@@H](CC(C)C)C(=O)N[C@@H](C)C(=O)N[C@@H](CCC(N)=O)C(=O)N[C@@H](CCCNC(=N)N)C(N)=O)C(C)C` [AT134, [hGIP(5-30)NH2[K16R; H18K; K30R]-16/18]] (H-TFISDYSIAMDRIK(Palmitoyl)QQDFVNWLLAQR-NH2; N-terminus assumed), the IC50 in data set [1] (setting [4]) is 93 nM; in data set [3] (setting [5]), 794 nM; in data set [3] (setting [6]) it was 882 nM. In data set [2], this molecule registered an Emax of 11%. Besides, the EC50 in data set [2] was determined as 35 nM. The “Fold change HSA (2%)/Casein (0.1%)” value in data set [3] was 5.5.
For `CCCCCCCCCCCCCCCC(=O)N[C@H](C(=O)N[C@@H](Cc1ccccc1)C(=O)N[C@H](C(=O)N[C@@H](CO)C(=O)N[C@@H](CC(=O)O)C(=O)N[C@@H](Cc1ccc(O)cc1)C(=O)N[C@@H](CO)C(=O)N[C@H](C(=O)N[C@@H](C)C(=O)N[C@@H](CCSC)C(=O)N[C@@H](CC(=O)O)C(=O)N[C@@H](CCCNC(=N)N)C(=O)N[C@H](C(=O)N[C@@H](Cc1c[nH]cn1)C(=O)N[C@@H](CCC(N)=O)C(=O)N[C@@H](CCC(N)=O)C(=O)N[C@@H](CC(=O)O)C(=O)N[C@@H](Cc1ccccc1)C(=O)N[C@H](C(=O)N[C@@H](CC(N)=O)C(=O)N[C@@H](Cc1c[nH]c2ccccc12)C(=O)N[C@@H](CC(C)C)C(=O)N[C@@H](CC(C)C)C(=O)N[C@@H](C)C(=O)N[C@@H](CCC(N)=O)C(=O)N[C@@H](CCCNC(=N)N)C(N)=O)C(C)C)[C@@H](C)CC)[C@@H](C)CC)[C@@H](C)CC)[C@@H](C)O` [AT135, [hGIP(5-30)NH2[K16R; K30R]-C16/5]] (Palmitoyl-TFISDYSIAMDRIHQQDFVNWLLAQR-NH2), the “Ability to antagonize the GIP-mediated cAMP response (in words)” value (shortened to “Ability”) in data set [1] is “failed to antagonize”. In data set [2], this molecule returned an Emax of 0%. The “Fold change HSA (2%)/Casein (0.1%)” value in data set [3] is given as 0.2. The IC50 in data set [3] (setting [5]) is 6310 nM; in data set [3] (setting [6]) it was 5940 nM.
Turning to `CC[C@H](C)[C@H](NC(=O)[C@H](CO)NC(=O)[C@H](Cc1ccc(O)cc1)NC(=O)[C@H](CC(=O)O)NC(=O)[C@H](CO)NC(=O)[C@@H](NC(=O)[C@H](Cc1ccccc1)NC(=O)[C@@H](NC(=O)CCCCCCCCCCCCC(=O)O)[C@@H](C)O)[C@@H](C)CC)C(=O)N[C@@H](C)C(=O)N[C@@H](CCSC)C(=O)N[C@@H](CC(=O)O)C(=O)N[C@@H](CCCCN)C(=O)N[C@H](C(=O)N[C@@H](Cc1c[nH]cn1)C(=O)N[C@@H](CCC(N)=O)C(=O)N[C@@H](CCC(N)=O)C(=O)N[C@@H](CC(=O)O)C(=O)N[C@@H](Cc1ccccc1)C(=O)N[C@H](C(=O)N[C@@H](CC(N)=O)C(=O)N[C@@H](Cc1c[nH]c2ccccc12)C(=O)N[C@@H](CC(C)C)C(=O)N[C@@H](CC(C)C)C(=O)N[C@@H](C)C(=O)N[C@@H](CCC(N)=O)C(=O)N[C@@H](CCCCN)C(N)=O)C(C)C)[C@@H](C)CC` [AT136, [hGIP(5-30)NH2—C14diacid/5]], the “Ability” value in data set [1] is on record as “high potent antagonists”. Further, in data set [2], the Emax is 20% and the concentration for a half-maximal effect (EC50) was 8 nM. For the same molecule, in data set [3], the “Affinity compared to GIP(3-30)NH2 (in words)” value was “affinities in the same range as GIP(3-30)NH2” and the “Fold change HSA (2%)/Casein (0.1%)” value stood at 15.7. Moreover, the IC50 in data set [3] (setting [5]) is 50.1 nM. The “Fold change in affinity, IC50 (plus HSA)/IC50 (minus HSA)” value in data set [3] (presence vs absence of 2% HSA, proxy for albumin binding) is recorded as 15.7 fold.
Broadly, the Ki is a dissociation constant, usually derived from enzyme kinetics or from competition with a known ligand. Take `CC[C@H](C)[C@H](NC(=O)[C@H](CO)NC(=O)[C@H](Cc1ccc(O)cc1)NC(=O)[C@H](CC(=O)O)NC(=O)[C@H](CO)NC(=O)[C@@H](NC(=O)[C@H](Cc1ccccc1)NC(=O)[C@@H](NC(=O)CCCCCCCCCCCCCCC(=O)O)[C@@H](C)O)[C@@H](C)CC)C(=O)N[C@@H](C)C(=O)N[C@@H](CCSC)C(=O)N[C@@H](CC(=O)O)C(=O)N[C@@H](CCCCN)C(=O)N[C@H](C(=O)N[C@@H](Cc1c[nH]cn1)C(=O)N[C@@H](CCC(N)=O)C(=O)N[C@@H](CCC(N)=O)C(=O)N[C@@H](CC(=O)O)C(=O)N[C@@H](Cc1ccccc1)C(=O)N[C@H](C(=O)N[C@@H](CC(N)=O)C(=O)N[C@@H](Cc1c[nH]c2ccccc12)C(=O)N[C@@H](CC(C)C)C(=O)N[C@@H](CC(C)C)C(=O)N[C@@H](C)C(=O)N[C@@H](CCC(N)=O)C(=O)N[C@@H](CCCCN)C(N)=O)C(C)C)[C@@H](C)CC` [AT137, [hGIP(5-30)NH2—C16diacid/5]]: in data set [1], the “Ability” value was “high potent antagonists” and the “Fold change of IC50 versus GIP(5-30)NH2” value is reported as 3.7. Further, the IC50 in data set [1] (antagonism of GIP-mediated cAMP response, COS-7 cells, read-out: cAMP accumulation IC50) stood at 102 nM. Moreover, the IC50 in data set [1] (setting [4]) is 182 nM. In data set [2], the Emax was 12% and the concentration for a half-maximal effect (EC50) was found to be 18 nM. In data set [3], the “Affinity compared to GIP(3-30)NH2 (in words)” value is “affinities in the same range as GIP(3-30)NH2”, the “Fold change HSA (2%)/Casein (0.1%)” value is reported as 1.9 and the “Binding (+/−HSA) Fold” value was found to be 2.0. For the same molecule, the IC50 in data set [3] (setting [5]) was 316 nM. Besides, the IC50 in data set [3] (setting [6]) turned out to be 286 nM. The Ki in data set [3] (presence of 2% HSA) worked out at 117 nM.
In the case of `CC[C@H](C)[C@H](NC(=O)[C@H](CO)NC(=O)[C@H](Cc1ccc(O)cc1)NC(=O)[C@H](CC(=O)O)NC(=O)[C@H](CO)NC(=O)[C@@H](NC(=O)[C@H](Cc1ccccc1)NC(=O)[C@@H](NC(=O)CCCCCCCCCCCCCCCCC(=O)O)[C@@H](C)O)[C@@H](C)CC)C(=O)N[C@@H](C)C(=O)N[C@@H](CCSC)C(=O)N[C@@H](CC(=O)O)C(=O)N[C@@H](CCCCN)C(=O)N[C@H](C(=O)N[C@@H](Cc1c[nH]cn1)C(=O)N[C@@H](CCC(N)=O)C(=O)N[C@@H](CCC(N)=O)C(=O)N[C@@H](CC(=O)O)C(=O)N[C@@H](Cc1ccccc1)C(=O)N[C@H](C(=O)N[C@@H](CC(N)=O)C(=O)N[C@@H](Cc1c[nH]c2ccccc12)C(=O)N[C@@H](CC(C)C)C(=O)N[C@@H](CC(C)C)C(=O)N[C@@H](C)C(=O)N[C@@H](CCC(N)=O)C(=O)N[C@@H](CCCCN)C(N)=O)C(C)C)[C@@H](C)CC` [AT138, [hGIP(5-30)NH2—C18diacid/5]], in data set [1], the “Ability” value was “failed to antagonize”. Also, the Emax in data set [2] was found to be 0%. In data set [3], the “Fold change HSA (2%)/Casein (0.1%)” value is 3.8. In addition, the IC50 in data set [3] (setting [5]) was 2510 nM; in data set [3] (setting [6]), 2640 nM.
In the case of `CC[C@H](C)[C@H](NC(=O)[C@H](CO)NC(=O)[C@H](Cc1ccc(O)cc1)NC(=O)[C@H](CC(=O)O)NC(=O)[C@H](CO)NC(=O)[C@@H](NC(=O)[C@H](Cc1ccccc1)NC(=O)[C@@H](N)[C@@H](C)O)[C@@H](C)CC)C(=O)N[C@@H](C)C(=O)N[C@@H](CCSC)C(=O)N[C@@H](CC(=O)O)C(=O)N[C@@H](CCCCNC(=O)CCCCCCCCCCCCCCC(=O)O)C(=O)N[C@H](C(=O)N[C@@H](Cc1c[nH]cn1)C(=O)N[C@@H](CCC(N)=O)C(=O)N[C@@H](CCC(N)=O)C(=O)N[C@@H](CC(=O)O)C(=O)N[C@@H](Cc1ccccc1)C(=O)N[C@H](C(=O)N[C@@H](CC(N)=O)C(=O)N[C@@H](Cc1c[nH]c2ccccc12)C(=O)N[C@@H](CC(C)C)C(=O)N[C@@H](CC(C)C)C(=O)N[C@@H](C)C(=O)N[C@@H](CCC(N)=O)C(=O)N[C@@H](CCCCN)C(N)=O)C(C)C)[C@@H](C)CC` [AT140, [hGIP(5-30)NH2—C16diacid/16]], the “Fold change of IC50 versus GIP(5-30)NH2” value in data set [1] is recorded as 7.4. Moreover, the IC50 in data set [1] (setting [4]) is 205 nM; in data set [3] (setting [5]), 2000 nM; in data set [3] (binding in presence of 2% HSA, read-out: logIC50 2% HSA (converted)) it was 3280 nM; in data set [3] (setting [6]), 2160 nM. The molecule also displayed a maximal response (Emax) in data set [2] of 0%. Moreover, the “Fold change HSA (2%)/Casein (0.1%)” value in data set [3] is 1.5. In addition, the Ki in data set [3] (absence of HSA) is 2160 nM. In addition, the “Binding (+/−HSA) Fold” value in data set [3] was found to be 1.5.
